Measurements reported in patent US20170224647A1, “NEW MDR1 INHIBITORS FOR OVERCOMING MULTIDRUG RESISTANCE” (UNIVERSITA' DEGLI STUDI DI PARMA, priority 2014, published 2017).

Key:
SKMES cells = assay: Intracellular doxorubicin by confocal microscope; type: cell-based, human
Method: SKMES cells were seeded on cover glasses and incubated with culture medium in a thermostat for 24 h. […]
Images were taken by using a confocal microscope (LSM 510 Meta scan integrated with a reversed microscope Carl Zeiss, Jena Germany), with a 43×/1.30 oil immersion lens.
Fluorescence of doxorubicin was excited with a 488 nm argon laser and its emission was collected by a 530 nm filter. During the analysis of the various samples, the confocal settings (excitation, laser power, detection range, and pinhole size) were kept unaltered.

MDR1 [1] = biological target: T1, MDR1 (Homo sapiens, UniProt P08183); assay: MDR1-mediated accumulation of fluorescent calcein in SKMES cells; type: cell-based; conditions: SKMES lung squamous-cell carcinoma cells; compared with PSC833; FIG. 3B
T1 construct: lung squamous-cell carcinoma (SKMES) expressing high levels of MDR1 on the plasma membrane; endogenous in cells; host or cells: SKMES (lung squamous-cell carcinoma)
T1 sequence (P08183 whole entry): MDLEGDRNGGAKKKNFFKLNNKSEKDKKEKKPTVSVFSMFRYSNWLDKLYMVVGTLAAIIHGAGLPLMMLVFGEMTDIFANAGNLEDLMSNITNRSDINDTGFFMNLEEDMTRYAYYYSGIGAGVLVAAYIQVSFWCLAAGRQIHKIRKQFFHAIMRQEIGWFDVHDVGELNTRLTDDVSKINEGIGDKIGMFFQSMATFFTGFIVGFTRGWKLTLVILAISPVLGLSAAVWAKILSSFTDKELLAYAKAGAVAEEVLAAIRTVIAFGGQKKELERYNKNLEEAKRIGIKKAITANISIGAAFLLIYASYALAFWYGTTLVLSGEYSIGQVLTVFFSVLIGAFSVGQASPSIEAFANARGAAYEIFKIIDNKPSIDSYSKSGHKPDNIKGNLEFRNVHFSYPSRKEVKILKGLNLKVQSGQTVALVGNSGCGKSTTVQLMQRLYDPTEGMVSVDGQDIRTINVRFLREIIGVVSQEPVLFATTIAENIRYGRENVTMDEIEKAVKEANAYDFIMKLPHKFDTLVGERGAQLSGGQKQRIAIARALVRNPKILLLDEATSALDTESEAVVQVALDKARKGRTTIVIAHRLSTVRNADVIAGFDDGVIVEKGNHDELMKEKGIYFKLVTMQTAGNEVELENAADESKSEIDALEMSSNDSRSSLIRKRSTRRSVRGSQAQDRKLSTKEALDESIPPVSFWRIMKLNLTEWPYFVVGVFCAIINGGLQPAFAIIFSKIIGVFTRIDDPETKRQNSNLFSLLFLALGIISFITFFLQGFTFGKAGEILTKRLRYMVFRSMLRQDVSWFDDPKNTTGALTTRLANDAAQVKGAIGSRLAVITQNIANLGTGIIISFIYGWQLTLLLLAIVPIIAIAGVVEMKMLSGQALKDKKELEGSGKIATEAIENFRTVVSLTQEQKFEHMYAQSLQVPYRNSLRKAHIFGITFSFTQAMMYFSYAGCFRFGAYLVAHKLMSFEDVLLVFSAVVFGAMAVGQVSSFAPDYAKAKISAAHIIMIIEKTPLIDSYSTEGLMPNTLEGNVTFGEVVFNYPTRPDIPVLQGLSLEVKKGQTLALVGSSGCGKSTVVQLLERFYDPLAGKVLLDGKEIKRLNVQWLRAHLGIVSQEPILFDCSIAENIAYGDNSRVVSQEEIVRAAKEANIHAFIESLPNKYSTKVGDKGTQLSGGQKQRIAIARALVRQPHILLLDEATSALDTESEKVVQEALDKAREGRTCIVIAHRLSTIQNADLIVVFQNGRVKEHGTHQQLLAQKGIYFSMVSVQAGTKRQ
Method: (§1) The lung carcinoma cell lines A549 and SKMES are grown in RPMI, supplemented with 10% fetal calf serum (FCS), 2 mM glutamine (Gln), and antibiotics (Penicillin 100 UI/ml and Streptomycin 100 μg/ml). Cells are kept in a thermostat at a temperature of 37° C., in air saturated with water vapor, enriched with 5% CO2.
(§2) Once the growth medium has been removed from the cells, a PBS washing at 37° C. is carried out, and RPMI without phenol red containing antibiotics is added, 5% FCS, 10 mM HEPES and 2mM Glutamine in the presence/absence of Calcein AM or 1 μM Hoechst and possible inhibitors are added. At the end of the loading, two washings with cold PBS are carried out, RPMI without Calcein AM or Hoechst is added, and samples are read by using the fluorescence plate reader (Enspire, Perkin Elmer; A of excitation: 360 nm; λ of emission: 465 nm). The value provided by the instrument is proportional to the intracellular concentration of Calcein AM and Hoechst. Finally, the cells are treated with 5% TCA, followed by 0.5 N NaOH to solubilize the cells. The protein content is determined by the Bradford method, and it is used for normalizing the uptake values of Calcein AM and Hoechst. The accumulation of Calcein or Hoechst is therefore expressed as the fluorescence intensity/mg proteins.

ABCA1 = biological target: T2, ABCA1 (Mus musculus, UniProt P41233); assay: ABCA1-mediated cholesterol outflow; type: cell-based; conditions: murine peritoneal macrophages, apolipoprotein A-I acceptor; FIG. 5B
T2 construct: the expression of the ABCA1 protein on the plasma membrane was stimulated by adding 22-OH cholesterol and 9-cis-retinoic acid; endogenous in cells; host or cells: murine peritoneal macrophages (primary)
T2 sequence (P41233 whole entry): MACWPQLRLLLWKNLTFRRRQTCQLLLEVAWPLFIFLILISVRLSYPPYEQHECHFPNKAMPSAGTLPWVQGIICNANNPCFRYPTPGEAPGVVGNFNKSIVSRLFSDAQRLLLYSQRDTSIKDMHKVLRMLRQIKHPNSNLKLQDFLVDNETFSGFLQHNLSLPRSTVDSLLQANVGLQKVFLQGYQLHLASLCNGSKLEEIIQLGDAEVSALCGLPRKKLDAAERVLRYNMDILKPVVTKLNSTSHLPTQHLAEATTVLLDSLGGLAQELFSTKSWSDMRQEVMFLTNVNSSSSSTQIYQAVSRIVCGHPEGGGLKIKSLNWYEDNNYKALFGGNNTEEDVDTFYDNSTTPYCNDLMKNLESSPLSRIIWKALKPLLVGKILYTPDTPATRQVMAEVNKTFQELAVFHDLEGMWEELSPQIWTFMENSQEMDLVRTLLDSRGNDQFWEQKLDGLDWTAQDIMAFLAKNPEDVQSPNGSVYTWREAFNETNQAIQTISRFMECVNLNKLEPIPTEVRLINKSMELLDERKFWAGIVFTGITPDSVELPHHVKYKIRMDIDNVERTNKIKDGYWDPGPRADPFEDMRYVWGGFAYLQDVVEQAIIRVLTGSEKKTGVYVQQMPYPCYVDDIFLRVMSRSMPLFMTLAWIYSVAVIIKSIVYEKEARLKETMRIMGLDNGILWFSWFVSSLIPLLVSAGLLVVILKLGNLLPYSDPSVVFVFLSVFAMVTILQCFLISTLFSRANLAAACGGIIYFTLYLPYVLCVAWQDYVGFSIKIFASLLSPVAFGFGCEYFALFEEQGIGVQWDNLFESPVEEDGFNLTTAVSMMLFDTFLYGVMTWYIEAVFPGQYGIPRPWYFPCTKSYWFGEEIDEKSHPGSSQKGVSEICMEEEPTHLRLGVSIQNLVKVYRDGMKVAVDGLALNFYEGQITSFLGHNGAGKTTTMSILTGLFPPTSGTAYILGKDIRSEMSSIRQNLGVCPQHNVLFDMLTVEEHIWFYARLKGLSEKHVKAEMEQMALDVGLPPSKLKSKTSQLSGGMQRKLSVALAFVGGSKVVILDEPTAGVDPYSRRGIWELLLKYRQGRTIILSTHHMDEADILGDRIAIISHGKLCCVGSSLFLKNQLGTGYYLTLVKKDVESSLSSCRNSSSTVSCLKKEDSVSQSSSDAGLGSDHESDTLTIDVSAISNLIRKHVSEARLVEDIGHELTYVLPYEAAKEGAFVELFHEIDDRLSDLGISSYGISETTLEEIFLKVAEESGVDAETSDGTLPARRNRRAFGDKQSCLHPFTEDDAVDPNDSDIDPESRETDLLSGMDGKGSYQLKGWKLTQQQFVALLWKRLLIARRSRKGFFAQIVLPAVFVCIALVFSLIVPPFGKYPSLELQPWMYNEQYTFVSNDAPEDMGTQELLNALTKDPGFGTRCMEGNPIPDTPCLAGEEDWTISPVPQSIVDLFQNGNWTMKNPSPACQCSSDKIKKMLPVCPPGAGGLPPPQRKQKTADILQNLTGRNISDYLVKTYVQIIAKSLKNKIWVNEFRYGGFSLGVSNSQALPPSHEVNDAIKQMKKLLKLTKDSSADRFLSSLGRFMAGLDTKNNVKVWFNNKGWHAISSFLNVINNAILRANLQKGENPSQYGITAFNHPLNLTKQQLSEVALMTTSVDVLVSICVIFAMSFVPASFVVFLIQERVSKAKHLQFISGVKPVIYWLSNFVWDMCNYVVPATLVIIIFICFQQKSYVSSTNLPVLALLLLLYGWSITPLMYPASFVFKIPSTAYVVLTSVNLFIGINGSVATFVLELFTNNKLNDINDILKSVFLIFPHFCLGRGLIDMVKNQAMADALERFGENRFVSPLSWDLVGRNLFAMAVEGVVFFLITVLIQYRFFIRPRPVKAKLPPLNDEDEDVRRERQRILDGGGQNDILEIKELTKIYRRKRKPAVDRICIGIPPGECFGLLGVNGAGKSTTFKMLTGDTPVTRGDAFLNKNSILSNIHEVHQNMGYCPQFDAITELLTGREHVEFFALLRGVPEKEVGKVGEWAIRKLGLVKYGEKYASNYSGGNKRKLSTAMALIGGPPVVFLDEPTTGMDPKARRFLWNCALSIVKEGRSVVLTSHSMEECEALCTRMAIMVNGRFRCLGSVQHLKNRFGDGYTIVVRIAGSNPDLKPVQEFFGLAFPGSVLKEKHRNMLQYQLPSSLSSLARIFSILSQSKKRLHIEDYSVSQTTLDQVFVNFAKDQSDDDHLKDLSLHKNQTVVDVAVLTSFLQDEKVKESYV
Method: Murine peritoneal macrophages were seeded in da 24-well plates, each containing 10^6 cell/well in 10% RPMI of fetal bovine serum (FBS). After 24 h, following a PBS washing, the cells were incubated with radiolabeled medium containing [3H]-cholesterol at a concentration of 2 μCi/ml in a medium supplemented with FBS 2% in the presence of the inhibitor of the esterifying enzyme ACAT (SAH58035) at a final concentration of 2 μg/ml in order to maintain all the intracellular cholesterol in the free form and the ABCA1 substrate in the outflow process. At the completion of the 24-hour staining, after the PBS washing, the cells were incubated with an equilibration medium composed of RPMI, 0.2% albumin, and the ACAT inhibitor. […] The filtered medium was collected and transferred into a vial, together with the scintillation liquid for the subsequent reading at the β-counter for the measurement of the radioactivity present in the cultural medium, which is an index of the free cholesterol excreted by the cells. The outflow percentage is calculated on the total radioactivity which is present in the cell by the following formula: % outflow=(average cpm/total cpm of the monolayer)×100. Each experimental condition was carried out in triplicates, and data was expressed as mean±standard deviation.

ABCG2 = biological target: T3, ABCG2 (Homo sapiens, UniProt Q9UNQ0); assay: ABCG2-mediated outflow of fluorescent Hoechst in H460 cells; type: cell-based; conditions: H460 cells over-expressing ABCG2; FIG. 4
T3 construct: a model of human lung adenocarcinoma (H460) over-expressing such receptor; endogenous in cells; host or cells: H460 (human lung carcinoma)
T3 sequence (Q9UNQ0 1-655): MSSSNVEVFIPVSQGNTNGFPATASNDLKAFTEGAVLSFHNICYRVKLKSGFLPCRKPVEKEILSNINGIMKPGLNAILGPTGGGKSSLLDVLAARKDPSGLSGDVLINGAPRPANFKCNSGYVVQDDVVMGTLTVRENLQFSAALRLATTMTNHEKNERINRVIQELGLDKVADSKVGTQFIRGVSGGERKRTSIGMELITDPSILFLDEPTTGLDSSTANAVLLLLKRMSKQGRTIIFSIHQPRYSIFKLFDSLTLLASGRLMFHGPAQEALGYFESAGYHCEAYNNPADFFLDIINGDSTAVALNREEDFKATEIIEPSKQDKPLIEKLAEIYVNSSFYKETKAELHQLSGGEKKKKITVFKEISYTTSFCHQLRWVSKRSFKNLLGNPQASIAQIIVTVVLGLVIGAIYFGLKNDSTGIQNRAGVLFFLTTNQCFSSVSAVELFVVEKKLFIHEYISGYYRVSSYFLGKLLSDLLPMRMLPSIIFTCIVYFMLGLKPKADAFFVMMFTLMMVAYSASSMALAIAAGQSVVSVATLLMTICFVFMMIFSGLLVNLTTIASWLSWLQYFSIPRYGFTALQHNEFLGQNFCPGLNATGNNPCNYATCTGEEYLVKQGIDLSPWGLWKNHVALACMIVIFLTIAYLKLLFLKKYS
Method: as §2

tumoral cell = assay: Intracellular concentration of doxorubicin by LC-MS/MS; type: cell-based; conditions: after AIF1 treatment compared to untreated cells; FIG. 8
Method: The intracellular content of Doxorubicin and AIF-1 may be determined by liquid chromatography-tandem mass spectrometry (LC-MS/MS) of samples extracted with absolute ethanol. In particular, after the treatment with the drugs, the culture medium is removed, and 3 washings of the cell monolayer with PBS are carried out. Then, the cells are incubated for ten minutes at room temperature with absolute ethanol, which is then analyzed by a LC-MS/MS technique. Values were normalized for the protein content assessed after solubilization of the cell monolayer with 0.5N NaOH and are expressed as pmoles/mg proteins.
Doxorubicin and AIF-1 concentrations in the samples of cell extracts were determined by liquid chromatography-tandem mass spectrometry (LCMS/MS) by using a mass spectrometer.
The samples extracted in ethanol were filtered on a 0.2 μm cellulose filter and analyzed by liquid chromatography-tandem mass spectrometry (LC-MS/MS). […]
The full scan mass spectra were recorded in the 250-900 m/z range, using a 0.1 stepsize and 1 s scan time in the positive ion mode for doxorubicin and atenolol (ATN, used as the internal standard) and in the negative ion mode for AIF1. […]

MDR1 [2] = biological target: T1, MDR1; assay: MDR1-mediated accumulation of fluorescent calcein in A549 cells; type: cell-based; conditions: A549 human lung adenocarcinoma cells; FIG. 3A
Method: as §1, §2

ABCG1 = biological target: T4, ABCG1 (Homo sapiens, UniProt P45844); assay: ABCG1-mediated cholesterol outflow; type: cell-based, hamster; conditions: CHO-L3 over-expressing ABCG1 vs CHO-K1, HDL acceptor; FIG. 5A
T4 construct: expressed in transfected cells; host or cells: CHO-L3 (derived from hamster ovary CHO-K1, which serves as control)
Method: In order to assess the ABCG1-mediated outflow, control hamster ovary cells CHO-K1 and CHO-L3 over-expressing the ABCG1 protein in Ham's medium F12 with 10% FBS were seeded in parallel in sterile 24-well plates. After 24 h, both cell lines were labeled with 10% FBS medium containing 1 μCi/ml [3H]-cholesterol. At the end of the labelling period (24 h), both cell lines were washed with PBS and equilibrated during 90 minutes with medium supplemented with 0.2% albumin. At the end of the equilibration, the cells were treated in the absence or presence of our compound AIF1 during 2 hours, and incubated for the next 6 hours e with the cholesterol acceptors, HDLs, at a concentration of 12.5 μg/ml. The quantification of the tritiated cholesterol secreted by the cells in the medium was determined as described in the previous paragraph. In particular, the contribution of the ABCG1 transporter to the cholesterol outflow was calculated as the difference between the outflow percentages obtained from the cell line CHO-L3 over-expressing ABCG1 and those obtained from the control cell line CHO-K1. Each experimental condition was carried out in triplicates, and data was expressed as mean±standard deviation.

effect on MDR1-mediated accumulation of fluorescent calcein (MDR1 [1]): highly effective
outflow of cholesterol mediated by ABCA1 (ABCA1): does not show any effect
accumulation/extrusion of fluorescent Hoechst (ABCG2 substrate) (ABCG2): did not show any effect
outflow of cholesterol mediated by ABCG1 (ABCG1): does not show any effect
Structure (SMILES): CC(C)(Sc1cc(C(C)(C)C)c(OC(=O)CCC(=O)O)c(C(C)(C)C)c1)Sc1cc(C(C)(C)C)c(OC(=O)CCC(=O)O)c(C(C)(C)C)c1 [AIF1]
intracellular fluorescent signal of doxorubicin (SKMES cells; after 60 and 90 minutes of doxorubicin in the presence of AIF1, FIGS. 7B, 7C): remains almost unaltered
intracellular fluorescent signal of doxorubicin (SKMES cells; after 30 minutes doxorubicin, vs cells not treated with the compound, FIG. 7A): considerably increased
concentration of intracellular doxorubicin (tumoral cell): significantly higher
intracellular concentration of calcein (MDR1-mediated cell outflow of fluorescent calcein) (MDR1 [2]): significantly and dose-dependent increases
